# Measured values reported in patent US5321030A, “Creatine analogs having antiviral activity” (priority 1991, dated 1994).
# Values joined by “and” are separate entries in the source; they are usually repeats but may differ in a detail not shown here. Identical values can stand only once. Like-named read-outs stand apart in the source and are kept apart here.
# Columns and labels:
# [1] = test system: herpes simplex virus type 2 (HSV-2), strain E194; assay: HSV-2 vaginitis in mice; assay type: in vivo, Swiss Webster female mice
# [2] = test system: Parainfluenza Type 3 (PIV-3), strain C243; assay: CPE-reduction assay, parainfluenza type 3 in HEp-2 cells; assay type: cell-based
# [3] = test system: Guinea Pig Cytomegalovirus, Strain 22122; assay: CPE reduction assay, guinea pig cytomegalovirus in GPE cells; assay type: cell-based; set-up: TI50 (CD50 ÷ ED50): unit not given here; details: for Average CPE: virus controls 4.0
# [4] = test system: HCMV, strain C8805-37 (DHPG resistant); assay: microbe, parasite or virus in culture; assay type: cell-based, Human Cytomegalovirus; set-up: TI50 (CD50 ÷ ED50): unit not given beside the values; details: for # Plaques: virus control 11.5 ± 2.1
# [5] = Cytotoxicity in plaque reduction assay, Hs68 cells; assay type: cell-based; details: human, Table 5, read-out: CD50 (the source's name)
# Experimental: Cytotoxicity was determined by examination of cells (located away from plaques) in infected wells which had been treated with drug.
# [6] = test system: Varicella-Zoster Virus, strain Oka; assay: microbe, parasite or virus in culture; assay type: cell-based; set-up: TI50 (CD50 ÷ ED50): unit not given beside the values
# [7] = Cytotoxicity in plaque reduction assay, CV-1 cells; assay type: cell-based, African Green Monkey; details: monkey, Table 9B, read-out: CD50 (the source's name)
# creatine kinase = creatine kinase (Oryctolagus cuniculus, UniProt P00563); assay: Phosphorylation by creatine kinase, coupled assay with pyruvate kinase and LDH; assay type: biochemical; details: 40 mM
# Experimental: Compound 5/6 (AM 361), where R=CH3, was prepared as described above and assayed for phosphorylation by creatine kinase in a coupled assay with pyruvate kinase and lactate dehydrogenase (LDH) as described (Bergmeyer, H. U., ed. (1974), In: Methods of Enzymatic Analysis, Second English Edition, Volume 4, (Verlag Chemie Weinheim and Academic Press, Inc.: New York, London) pp. 1772-1779). Each compound listed in Table 11 below was tested at a concentration of 40 mM. Compound 5/6 (AM 361) was slowly phosphorylated.
# HSV-2 = assay: Cytopathic effect (CPE) assay, HSV-2
# [8] = Human alphaherpesvirus 3, CV-1, read-out: % Reduction
# [9] = Human alphaherpesvirus 3, MRC5, read-out: % Reduction
# Chain of creatine kinase (P00563 whole entry): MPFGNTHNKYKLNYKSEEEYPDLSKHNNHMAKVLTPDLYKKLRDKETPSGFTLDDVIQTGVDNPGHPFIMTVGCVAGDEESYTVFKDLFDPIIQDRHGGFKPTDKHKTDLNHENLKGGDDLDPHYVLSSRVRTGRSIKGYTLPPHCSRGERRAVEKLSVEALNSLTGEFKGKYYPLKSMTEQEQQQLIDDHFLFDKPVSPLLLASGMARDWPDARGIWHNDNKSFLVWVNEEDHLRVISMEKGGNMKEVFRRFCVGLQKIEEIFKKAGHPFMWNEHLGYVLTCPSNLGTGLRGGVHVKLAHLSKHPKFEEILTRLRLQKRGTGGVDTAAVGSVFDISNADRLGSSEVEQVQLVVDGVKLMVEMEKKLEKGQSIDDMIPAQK
structure (smiles),measurement,setting,value
"NC1=NCCN1CC(=O)O [cyclocreatine, 1-carboxymethyl-2-iminoimidazolidine]",antiviral effect in vaginitis model,[1]; 1% dietary,"comparable to that achieved by acyclovir at 200 mg/kg, 100 mg/kg or 50 mg/kg"
same,average lesion score,"[1]; 1% in chow, Grand Ave. (Days 3-14)",0.8 ± 0.2
same,average lesion score,"[1]; 1% in chow, day 3",0.2 ± 0.2
same,average lesion score,"[1]; 1% in chow, day 4",0.5 ± 0.7
same,average lesion score,"[1]; 1% in chow, day 5",0.9 ± 1.3
same,average lesion score,"[1]; 1% in chow, day 6",0.9 ± 1.3
same,average lesion score,"[1]; 1% in chow, day 7",0.8 ± 1.4
same,average lesion score,"[1]; 1% in chow, day 8",0.8 ± 1.4
same,average lesion score,"[1]; 1% in chow, day 9",1.0 ± 1.3
same,average lesion score,"[1]; 1% in chow, day 10",1.1 ± 1.3
same,average lesion score,"[1]; 1% in chow, day 11",1.0 ± 1.3
same,average lesion score,"[1]; 1% in chow, day 12",0.9 ± 1.3
same,average lesion score,"[1]; 1% in chow, day 13",0.9 ± 1.4
same,average lesion score,"[1]; 1% in chow, day 14",0.7 ± 1.4
same,activity in vaginitis model,[1]; 5% and […] cream topical,inactive
same,average lesion score,"[1]; 5% cream topical, Grand Ave. (Days 3-14)",2.3 ± 1.1
same,average lesion score,"[1]; 5% cream topical, day 3",0.3 ± 0.3
same,average lesion score,"[1]; 5% cream topical, day 4",0.4 ± 0.4
same,average lesion score,"[1]; 5% cream topical, day 5",1.5 ± 1.1
same,average lesion score,"[1]; 5% cream topical, day 6",2.1 ± 1.6
same,average lesion score,"[1]; 5% cream topical, day 7",2.0 ± 1.3
same,average lesion score,"[1]; 5% cream topical, day 8",2.8 ± 1.8
same,average lesion score,"[1]; 5% cream topical, day 9",3.2 ± 1.6
same,average lesion score,"[1]; 5% cream topical, day 10",3.2 ± 1.5
same,average lesion score,"[1]; 5% cream topical, day 11",3.1 ± 1.5
same,average lesion score,"[1]; 5% cream topical, day 12",3.0 ± 1.5
same,average lesion score,"[1]; 5% cream topical, day 13",3.0 ± 1.5
same,average lesion score,"[1]; 5% cream topical, day 14",3.0 ± 1.5
same,survival,[1]; 10% cream topical (16% in the placebo group),40%
same,effect on average lesion score,"[1]; 10% cream topical, FIG. 10",slightly reduces the average lesion score
same,average lesion score,"[1]; 10% cream topical, Grand Ave. (Days 3-14)",1.6 ± 0.8
same,average lesion score,"[1]; 10% cream topical, day 3",0.2 ± 0.2
same,average lesion score,"[1]; 10% cream topical, day 4",0.1 ± 0.2
same,average lesion score,"[1]; 10% cream topical, day 5",0.9 ± 1.2
same,average lesion score,"[1]; 10% cream topical, day 6",1.4 ± 1.9
same,average lesion score,"[1]; 10% cream topical, day 7",1.6 ± 1.9
same,average lesion score,"[1]; 10% cream topical, day 8",2.0 ± 2.0
same,average lesion score,"[1]; 10% cream topical, day 9",2.2 ± 1.9
same,average lesion score,"[1]; 10% cream topical, day 10",2.2 ± 1.9
same,average lesion score,"[1]; 10% cream topical, day 11",2.1 ± 1.9
same,average lesion score,"[1]; 10% cream topical, day 12",2.0 ± 1.9
same,average lesion score,"[1]; 10% cream topical, day 13",2.0 ± 1.9
same,average lesion score,"[1]; 10% cream topical, day 14",2.0 ± 1.9
same,average lesion score,"[1]; […] cream topical, Grand Ave. (Days 3-14)",2.0 ± 0.9
same,average lesion score,"[1]; […] cream topical, day 3",0.2 ± 0.2
same,average lesion score,"[1]; […] cream topical, day 4",0.4 ± 0.6
same,average lesion score,"[1]; […] cream topical, day 5",1.2 ± 1.3
same,average lesion score,"[1]; […] cream topical, day 6",1.8 ± 1.8
same,average lesion score,"[1]; […] cream topical, day 7",2.2 ± 1.8
same,average lesion score,"[1]; […] cream topical, day 8",2.7 ± 1.7
same,average lesion score,"[1]; […] cream topical, day 9",2.4 ± 1.9
same,average lesion score,"[1]; […] cream topical, day 10",2.6 ± 1.7
same,average lesion score,"[1]; […] cream topical, day 11",2.6 ± 1.7
same,average lesion score,"[1]; […] cream topical, day 12",2.6 ± 1.7
same,average lesion score,"[1]; […] cream topical, day 13",2.6 ± 1.7
same,average lesion score,"[1]; […] cream topical, day 14",2.6 ± 1.7
same,"activity in vaginitis model, second experiment",[1]; cream topical,"weak, but not statistically significant, activity"
same,Mean Day to Death,"[1]; virus infected, AM-285 1% dietary",6.0 ± 0.0
same,Average CPE,[2]; 5 mg/ml,2.8
same,Average CPE,[2]; 10 mg/ml,0.5
same,Average CPE,[3]; AM-285 156.25 μg/ml,4.0
same,Average CPE,[3]; AM-285 312.5 μg/ml,4.0
same,Average CPE,[3]; AM-285 625 μg/ml,3.5
same,Average CPE,[3]; AM-285 1250 μg/ml,3.3
same,Average CPE,[3]; AM-285 2500 μg/ml,2.5
same,Average CPE,[3]; AM-285 5000 μg/ml,1.7
same,Average CPE,[3]; AM-285 10000 μg/ml,0.0
same,EC50,"[3]; Caviid betaherpesvirus 2, GPE cells, Table 3, read-out: ED50 (the source's name)",3270 µg/mL
same,TI50 (CD50 ÷ ED50),"[3]; GPE cells, Table 3",> 3.0
same,effect on CPE,[3]; between 0.625 and 5.0 mg/ml,An inhibitory effect
same,# Plaques,[4]; AM-285 156.25 μg/ml,9.5
same,# Plaques,[4]; AM-285 312.5 μg/ml,12
same,# Plaques,[4]; AM-285 625 μg/ml,10.5
same,# Plaques,[4]; AM-285 1250 μg/ml,9.5
same,# Plaques,[4]; AM-285 2500 μg/ml,6.5
same,# Plaques,[4]; AM-285 5000 μg/ml,1.5
same,# Plaques,[4]; AM-285 10000 μg/ml,0
same,inhibition at 156.25 µg/mL,"[4]; Human betaherpesvirus 5, MRC5, AM-285 156.25 μg/ml, read-out: % Reduction",0%
same,inhibition at 312.5 µg/mL,"[4]; Human betaherpesvirus 5, MRC5, AM-285 312.5 μg/ml, read-out: % Reduction",0%
same,inhibition at 625 µg/mL,"[4]; Human betaherpesvirus 5, MRC5, AM-285 625 μg/ml, read-out: % Reduction",0%
same,inhibition at 1250 µg/mL,"[4]; Human betaherpesvirus 5, MRC5, AM-285 1250 μg/ml, read-out: % Reduction",0%
same,inhibition at 2500 µg/mL,"[4]; Human betaherpesvirus 5, MRC5, AM-285 2500 μg/ml, read-out: % Reduction",43%
same,inhibition at 5000 µg/mL,"[4]; Human betaherpesvirus 5, MRC5, AM-285 5000 μg/ml, read-out: % Reduction",87%
same,inhibition at 10000 µg/mL,"[4]; Human betaherpesvirus 5, MRC5, AM-285 10000 μg/ml, read-out: % Reduction",100%
same,EC50,"[4]; Human betaherpesvirus 5, MRC5, MRC-5 cells, Table 7, read-out: ED50 (the source's name)",2780 µg/mL
same,TI50 (CD50 ÷ ED50),"[4]; MRC-5 cells, Table 7",> 3.6
same,CC50,[5],> 4000 µg/mL
same,TI50 (CD50 ÷ ED50),"[6]; CV-1 cells, Table 9B",~ 54
same,# Plaques,"[6]; CV-1 cells, AM-285 156 μg/ml, virus control 70.25 ± 6.9",28.5
same,# Plaques,"[6]; CV-1 cells, AM-285 312.5 μg/ml, virus control 70.25 ± 6.9",12
same,# Plaques,"[6]; CV-1 cells, AM-285 625 μg/ml, virus control 70.25 ± 6.9",3
same,# Plaques,"[6]; CV-1 cells, AM-285 1250 μg/ml, virus control 70.25 ± 6.9",1
same,# Plaques,"[6]; CV-1 cells, AM-285 2500 μg/ml, virus control 70.25 ± 6.9",0
same,# Plaques,"[6]; CV-1 cells, AM-285 5000 μg/ml, virus control 70.25 ± 6.9",0
same,# Plaques,"[6]; CV-1 cells, AM-285 10000 μg/ml, virus control 70.25 ± 6.9",0
same,inhibition at 156 µg/mL,[6]; [8],59%
same,inhibition at 312.5 µg/mL,[6]; [8],83%
same,inhibition at 625 µg/mL,[6]; [8],96%
same,inhibition at 1250 µg/mL,[6]; [8],98%
same,inhibition at 2500 µg/mL,[6]; [8],100%
same,inhibition at 5000 µg/mL,[6]; [8],100%
same,inhibition at 10000 µg/mL,[6]; [8],100%
same,EC50,"[6]; Human alphaherpesvirus 3, CV-1, read-out: ED50",< 156 µg/mL
same,EC50,"[6]; Human alphaherpesvirus 3, CV-1, read-out: ED50, approximate value in parentheses",~107 µg/mL
same,inhibition at 62.5 µg/mL,[6]; [9],0%
same,inhibition at 125 µg/mL,[6]; [9],0%
same,inhibition at 260 µg/mL,[6]; [9],36%
same,inhibition at 500 µg/mL,[6]; [9],42%
same,inhibition at 1000 µg/mL,[6]; [9],71%
same,inhibition at 2000 µg/mL,[6]; [9],91%
same,inhibition at 4000 µg/mL,[6]; [9],100%
same,EC50,"[6]; Human alphaherpesvirus 3, MRC5, read-out: ED50",564 µg/mL
same,TI50 (CD50 ÷ ED50),"[6]; MRC-5 cells, Table 9A",> 7.1
same,# Plaques,"[6]; MRC-5 cells, AM-285 62.5 μg/ml, virus control 32.7 ± 9.3",26
same,# Plaques,"[6]; MRC-5 cells, AM-285 125 μg/ml, virus control 32.7 ± 9.3",26
same,# Plaques,"[6]; MRC-5 cells, AM-285 260 μg/ml, virus control 32.7 ± 9.3",21
same,# Plaques,"[6]; MRC-5 cells, AM-285 500 μg/ml, virus control 32.7 ± 9.3",19
same,# Plaques,"[6]; MRC-5 cells, AM-285 1000 μg/ml, virus control 32.7 ± 9.3",9.5
same,# Plaques,"[6]; MRC-5 cells, AM-285 2000 μg/ml, virus control 32.7 ± 9.3",3
same,# Plaques,"[6]; MRC-5 cells, AM-285 4000 μg/ml, virus control 32.7 ± 9.3",0
same,CC50,[7],5790 µg/mL
same,% Rate of Creatine,creatine kinase,46%
same,Δ in Absorbance/min,creatine kinase,0.54
same,EC50,"HSV-2; Human alphaherpesvirus 2, Vero, read-out: ED50",1690 µg/mL and 11 mM
same,EC (60 or 70),"HSV-2; Human alphaherpesvirus 2, Vero, read-out: concentration required to inhibit cytopathogenicity by 60% or 70%",35000 µM
same,effect on cytopathic effect,HSV-2; contact-inhibited A459 cells,inhibited the cytopathic effect
same,effect on cytopathic effect,"HSV-2; contact-inhibited BalbC/3T3 cells, FIG. 4A",inhibited the cytopathic effect
same,effect on cytopathic effect,"HSV-2; serum-starved DU145 cells, FIG. 6A",inhibited the cytopathic effect
same,TI,HSV-2; serum-starved Vero cells,> 5.5
same,effect on cytopathic effect,"HSV-2; serum-starved Vero cells, FIG. 2A",inhibits the cytopathic effect
